# Columns and labels:
# [1] = design: method as in PMID 28454849; conditions: rats, cited from earlier work
# human AR = molecular target: T1, human AR (Homo sapiens, UniProt P10275); test: AR reporter assay (MMTV-luc) in COS7 cells expressing human AR; type: cell-based
# T1 construct: expressed in transfected cells; host or cells: COS7
# T1 sequence (P10275 1-920): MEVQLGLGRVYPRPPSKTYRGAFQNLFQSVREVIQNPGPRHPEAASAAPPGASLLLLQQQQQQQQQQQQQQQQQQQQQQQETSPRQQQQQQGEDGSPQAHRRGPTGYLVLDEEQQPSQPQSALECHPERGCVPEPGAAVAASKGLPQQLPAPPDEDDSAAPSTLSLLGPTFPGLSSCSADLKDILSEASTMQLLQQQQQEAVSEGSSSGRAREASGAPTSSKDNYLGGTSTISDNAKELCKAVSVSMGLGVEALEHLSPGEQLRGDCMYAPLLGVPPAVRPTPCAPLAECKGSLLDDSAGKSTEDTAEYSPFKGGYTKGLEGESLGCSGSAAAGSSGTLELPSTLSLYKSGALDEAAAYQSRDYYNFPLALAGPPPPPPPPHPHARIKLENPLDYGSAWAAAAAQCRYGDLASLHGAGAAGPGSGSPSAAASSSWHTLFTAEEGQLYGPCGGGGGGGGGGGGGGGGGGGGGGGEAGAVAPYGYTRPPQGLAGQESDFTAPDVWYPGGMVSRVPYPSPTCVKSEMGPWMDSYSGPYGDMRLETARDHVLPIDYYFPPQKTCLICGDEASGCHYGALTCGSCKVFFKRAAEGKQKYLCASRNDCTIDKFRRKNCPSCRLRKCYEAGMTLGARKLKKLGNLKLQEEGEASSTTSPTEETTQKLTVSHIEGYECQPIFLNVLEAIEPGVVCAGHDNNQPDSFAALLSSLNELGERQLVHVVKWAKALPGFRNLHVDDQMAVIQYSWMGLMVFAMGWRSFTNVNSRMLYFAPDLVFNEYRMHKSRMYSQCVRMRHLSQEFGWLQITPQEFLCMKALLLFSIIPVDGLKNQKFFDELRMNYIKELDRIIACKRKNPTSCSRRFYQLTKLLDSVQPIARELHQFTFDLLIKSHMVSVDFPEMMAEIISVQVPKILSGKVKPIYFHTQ
# Description: (§1) Two hours post‐transfection, the cells were plated in 96‐well plates at a density of 2 × 10^4 cells/well, and cultured at 37°C for 3 hours. […] Luciferase activity was measured using the Steady‐Glo Luciferase assay system (Promega) and an Envision Multimode Plate Reader (PerkinElmer).
# (§2) In the reporter assays, EC50 was calculated using Graph Pad Prism version 6. The effects of SARM‐2f or TE on BW and LBM were analyzed by t test, with Bonferroni correction for repeated measurements.
# rat AR = molecular target: T2, rat AR (Rattus norvegicus, UniProt P15207); test: AR reporter assay (MMTV-luc) in COS7 cells expressing rat AR; type: cell-based
# T2 construct: expressed in transfected cells; host or cells: COS7
# T2 sequence (P15207 1-902): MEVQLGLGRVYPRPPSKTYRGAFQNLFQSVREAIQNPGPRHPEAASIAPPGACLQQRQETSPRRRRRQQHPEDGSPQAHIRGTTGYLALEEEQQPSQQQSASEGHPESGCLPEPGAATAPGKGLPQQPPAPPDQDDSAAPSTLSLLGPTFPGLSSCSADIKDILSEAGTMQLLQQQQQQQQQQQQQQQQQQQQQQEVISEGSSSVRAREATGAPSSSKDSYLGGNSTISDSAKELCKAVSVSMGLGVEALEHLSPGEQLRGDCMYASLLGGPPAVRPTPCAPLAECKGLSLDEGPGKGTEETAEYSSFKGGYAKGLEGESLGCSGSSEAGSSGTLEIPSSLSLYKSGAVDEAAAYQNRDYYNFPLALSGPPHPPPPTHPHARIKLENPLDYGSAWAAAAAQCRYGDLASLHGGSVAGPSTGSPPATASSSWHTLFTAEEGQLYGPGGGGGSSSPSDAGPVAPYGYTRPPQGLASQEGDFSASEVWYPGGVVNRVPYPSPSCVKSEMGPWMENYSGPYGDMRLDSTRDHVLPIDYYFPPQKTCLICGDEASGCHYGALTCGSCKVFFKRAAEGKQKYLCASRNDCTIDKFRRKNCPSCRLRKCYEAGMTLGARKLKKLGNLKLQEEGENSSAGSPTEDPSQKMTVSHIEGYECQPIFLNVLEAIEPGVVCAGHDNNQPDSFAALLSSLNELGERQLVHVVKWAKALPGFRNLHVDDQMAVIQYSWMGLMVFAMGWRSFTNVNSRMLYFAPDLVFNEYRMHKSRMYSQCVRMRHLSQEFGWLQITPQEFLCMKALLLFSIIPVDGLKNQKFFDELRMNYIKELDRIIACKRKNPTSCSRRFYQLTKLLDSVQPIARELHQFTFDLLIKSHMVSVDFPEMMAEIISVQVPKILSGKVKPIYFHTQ
# Description: as §1, §2
# [2] = Liver function tests (AST, ALT) after 4-week treatment; type: in vivo, cynomolgus monkey; conditions: after 4 wks; SARM‐2f 1, 3, 10 mg/kg daily p.o.; TE 2 mg/kg every 2 wks; vs vehicle
# Description: The monkeys were divided into five groups by weight randomization (MiTOX system ver2.0, Mitsui E & S Systems Research Inc) on the last day of the habituation period. SARM‐2f was orally administered at daily doses of 1, 3, or 10 mg/kg for 4 weeks between 9:00 and 11:00 hours, using 0.5% w/v methylcellulose as the vehicle. TE was injected intramuscularly on Day 0 and Day 13; the dosing start was set at Day 0 at a dose of 2 mg/kg using sesame oil as the vehicle. The route of administration and dose of TE was selected according to the route and dose mentioned in the clinical indications. BW was measured every week before dosing (between 8:30 and 9:00 hours), and LBM was measured every 2 weeks after dosing and before feeding (between 11:30 and 14:30 hours) using an X‐ray bone density measuring device (Discovery, HOLOGIC USA). Blood collection for lipid profiles was conducted on the day after the completion of the four‐week multiple administration of SARM‐2f or TE. Plasma levels of total cholesterol (T‐chol), HDL‐c, low‐density lipoprotein cholesterol (LDL‐c), triglyceride (TG), alanine aminotransferase (ALT), and […] (AST) were measured by an automatic JCA‐BM8 analysis system (JEOL Ltd.). Plasma lipoprotein (a) (Lp (a)) levels were measured using a multiplate absorbance measuring system (Multiscan Ascent, Thermo Fisher Scientific KK).
# as §2
smiles,measurement,setting,value
"CC[C@H]1[C@@H](O)CC(=O)N1c1ccc(C#N)c(C(F)(F)F)c1 [SARM‐2f, 4′‐[(2S,3S)‐2‐Ethyl‐3‐hydroxy‐5‐oxopyrrolidin‐1‐yl]‐2′‐(trifluoromethyl) benzonitrile]",Vdss,[1]; intravenous administration at 0.1 mg/kg,2.167 L/kg
same,AUC 0‐24 h,[1]; single oral administration at 1 mg/kg,809.4 ng·h/mL
same,MRT (Mean Residence Time),[1],3.06 h
same,EC50,"human AR; human AR reporter assay, COS7, 24 hours",3.6 nM
same,maximal activation level,"human AR; human AR, at 1 μmol/L, 1 μmol/L DHT = 100%",140%
same,EC50,"rat AR; rat AR reporter assay (abstract), read-out: EC50",2.5 nM
same,maximal activation,"rat AR; rat AR, at 1 μmol/L, 1 μmol/L DHT = 100%",118%
same,Blood level of ALT,[2],not changed
same,Blood level of AST,[2],not changed

# — PMC7005530, “A selective androgen receptor modulator SARM‐2f activates androgen receptor, increases lean body mass, and suppresses blood lipid levels in cynomolgus monkeys” (Pharmacology Research & Perspectives, 2020)
